Experiments:
[1] = tested on: adult patients with type 2 diabetes mellitus with albuminuria; assay: Phase 2 study: serum LDL cholesterol; assay type: in vivo, human; conditions: for Serum LDL Cholesterol: Between PRL and PBO Group LS Mean Change from Baseline at week 12 / Serum LDL Cholesterol: Within Group LS Mean Change from Baseline at Week 12: ITT; for LDL Cholesterol: Placebo Adjusted LS Mean Change from Baseline at Week 12 / LDL Cholesterol: Within Group LS Mean Change from Baseline at Week 12: mITT Population
Text: (§1) Other secondary objectives of this clinical study included the evaluation of the pharmacokinetic (PK) concentrations of oral IW-1973 and the exploration of the effect of oral IW-1973 on hemodynamics and metabolic effects when administered daily for approximately 12 weeks to adult patients with type 2 diabetes mellitus with albuminuria (i.e., DN patients) who were on a stable regimen of renin-angiotensin system inhibitors (RAAS inhibitors, i.e., ACEi's and ARBs).
(§2) Clinical laboratory assessments obtained during the performance of this clinical trial included: complete blood count, serum chemistry panel, urinalysis, coagulation panel, estimated glomerular filtration rate (eGFR; determined by the Chronic Kidney Disease Epidemiology Collaboration [CKD-EPI] creatinine equation), hemoglobin A1c (HbA1C), Homeostatic Model Assessment to estimate insulin resistance (HOMA-IR), platelet function assessment (using VerifyNow®, at a subset of sites), urine pregnancy, and screens for hepatitis, human immunodeficiency virus, and drugs of abuse.
(§3) This multicenter, randomized, double-blind, placebo-controlled, parallel-group study evaluated 2 dose levels of IW-1973 compared with placebo. The study population consisted of adult patients with type 2 diabetes mellitus, albuminuria, and impaired renal function. Patients had to have been taking antihyperglycemic medications for at least 12 weeks with their regimen being stable (ie, drug and dose) for at least 28 days before the Randomization Visit. Additionally, patients had to have been on a stable regimen of angiotensin-converting enzyme inhibitor (ACEi) or an angiotensin receptor blocker (ARB), for at least 28 days before the Randomization Visit. For more details, see Inclusion Criteria below. A total of 156 patients (approximately 50 patients per arm) were stratified by baseline estimated glomerular filtration rate (eGFR) into three groups: eGFR 30 to 45, >45 to 60, and >60 to 75 mL/min/1.73 m^2) and randomized approximately 1:1:1 to total daily 20 mg IW-1973, 40 mg IW-1973, or placebo.

[2] = Plasma IW-1973 concentrations / population PK in the Phase 2 study; assay type: in vivo, human
Procedure: Plasma IW-1973 concentrations were measured for pharmacokinetic determinations.
The population PK approach based on sparse PK data was used to determine exposure (AUC) and oral clearance (CL/F) of IW-1973. Influence of patient demographics (eg, age, race) on exposure was evaluated. In addition, exposure-effect (such as hemodynamic, exploratory biomarkers, efficacy, and safety parameters) relationships were explored. Effects of concomitant medications on IW-1973 PK was also evaluated.
Praliciguat concentrations were measured using a validated liquid chromatography tandem mass spectrometry method, as previously described (Hanrahan J P, et al. “A Randomized, Placebo-Controlled, Multiple-Ascending-Dose Study to Assess the Safety, Tolerability, Pharmacokinetics, and Pharmacodynamics of the Soluble Guanylate Cyclase Stimulator Praliciguat in Healthy Subjects” Clin Pharmacol Drug Dev. 2019, 8(5):564-575). Population PK analysis was performed using NONMEM 7.4 (Icon Development Solutions, Ellicott City, MD) to update an existing model established with data from three Phase 1 studies in healthy subjects and two phase 2a studies in patients with stable type 2 diabetes mellitus (T2D) and hypertension. The influence of patient demographics, renal function and concomitant medications on exposure were evaluated, and estimates of exposure (AUC) and oral clearance (CL/F) were determined.

[3] = tested on: adult patients with type 2 diabetes mellitus with albuminuria; assay: Phase 2 study: 24-hour ambulatory blood pressure monitoring (ABPM); assay type: in vivo, human; conditions: ITT, 24-Hour ABPM
Procedure: Hemodynamic and vital signs that were measure included seated and standing BP (systolic and diastolic) and pulse measurements by automated office blood pressure (AOBP), ambulatory BP (systolic and diastolic) and pulse monitoring, respiratory rate, oral temperature. Orthostatic (standing minus seated) measurements were calculated for BPs and pulse.
as §3
Screening Period: The Screening Period began with the signature of the informed consent form (ICF) at the Screening Visit and lasted up to 45 days. At the Screening Visit (which could occur from Day −45 to Day −15), patients underwent preliminary screening procedures to determine their eligibility. Eligible patients returned to the clinic for the Baseline Visit ([…]) for baseline and eligibility assessments including 24-hour ambulatory blood pressure monitoring (ABPM). The end of the Screening Period coincided with the beginning of the Treatment Period.
Dosing on Days 1 to 7 (±1) was BID (twice daily), morning and evening; dosing on Day 8 (±1) and onward was QD (once daily), 2 tablets in the morning. At the Randomization Visit on Day 1, patients received their morning dose of study drug in the clinic and underwent safety, efficacy, and pharmacokinetic (PK) assessments, including blood and urine collections at prespecified times. Patients stayed in the clinic at least 6 hours postdose and were able to leave the clinic at the Investigator's discretion following all study procedures. At the Week 1 Visit on Day 8 (±1), patients returned to the clinic and received their first QD dose of study drug in the clinic. Patients underwent safety, efficacy, and PK assessments, including blood and urine collections at prespecified times. Patients stayed in the clinic at least 6 hours postdose and were able to leave the clinic at the Investigator's discretion following all study procedures. At the Week 4 (Day 29±3), Week 8 (Day 57±3), and End of Treatment (Day 87±3) Visits, patients returned to the clinic for study drug administration; safety, efficacy, and PK assessments; and study drug supply, if applicable.

[4] = tested on: adult patients with type 2 diabetes mellitus with albuminuria; assay: Phase 2 study: hemoglobin A1c; assay type: in vivo, human; conditions: for Hemoglobin A1c: Between PRL and PBO Group LS Mean Change from Baseline at week 12 / Hemoglobin A1c: Within Group LS Mean Change from Baseline at Week 12: ITT
Text: as §1, §2, §3

[5] = patient concomitantly taking a strong CYP3A inhibitor; cited from earlier work

OC(CNc1nc(-c2cc(-c3ccon3)n(Cc3ccccc3F)n2)ncc1F)(C(F)(F)F)C(F)(F)F [Compound I, praliciguat]
Serum LDL Cholesterol: Between PRL and PBO Group LS Mean Change from Baseline at week 12 ([1]; PRL 20 mg): -8.9 mg/dL | Serum LDL Cholesterol: Within Group LS Mean Change from Baseline at Week 12 ([1]; PRL 20 mg): -6.0 mg/dL | Serum LDL Cholesterol: Between PRL and PBO Group LS Mean Change from Baseline at week 12 ([1]; PRL 40 mg): -6.2 mg/dL | Serum LDL Cholesterol: Within Group LS Mean Change from Baseline at Week 12 ([1]; PRL 40 mg): -3.3 mg/dL | Serum LDL Cholesterol: Between PRL and PBO Group LS Mean Change from Baseline at week 12 ([1]; PRL Combined): -7.5 mg/dL | Serum LDL Cholesterol: Within Group LS Mean Change from Baseline at Week 12 ([1]; PRL Combined): -4.6 mg/dL | LDL Cholesterol: Placebo Adjusted LS Mean Change from Baseline at Week 12 ([1]; PRL 20 mg): -13.4 mg/dL | LDL Cholesterol: Within Group LS Mean Change from Baseline at Week 12 ([1]; PRL 20 mg): -8.8 mg/dL | LDL Cholesterol: Placebo Adjusted LS Mean Change from Baseline at Week 12 ([1]; PRL 40 mg): -9.5 mg/dL | LDL Cholesterol: Within Group LS Mean Change from Baseline at Week 12 ([1]; PRL 40 mg): -4.9 mg/dL | LDL Cholesterol: Placebo Adjusted LS Mean Change from Baseline at Week 12 ([1]; PRL Combined): -11.4 mg/dL | LDL Cholesterol: Within Group LS Mean Change from Baseline at Week 12 ([1]; PRL Combined): -6.9 mg/dL | plasma exposure versus dose ([2]; 20 mg and 40 mg total daily oral dose): dose-proportional exposure | time to steady state of plasma concentrations ([2]; daily oral dosing): ≤ 4 weeks | route of elimination (renal excretion) ([2]; metabolized in the liver): negligible renal excretion | Between PRL and PBO Group LS Mean Change 24-hour MAP from Baseline at week 12 ([3]; PRL 20 mg): −3.96 mmHg | Between PRL and PBO Group LS Mean Change 24-hour SBP from Baseline at week 12 ([3]; PRL 20 mg): −4.06 mmHg | Within Group LS Mean Change from Baseline 24-hour MAP at Week 12 ([3]; PRL 20 mg): −3.62 mmHg | Within Group LS Mean Change from Baseline 24-hour SBP at Week 12 ([3]; PRL 20 mg): −4.18 mmHg | Between PRL and PBO Group LS Mean Change 24-hour MAP from Baseline at week 12 ([3]; PRL 40 mg): −3.58 mmHg | Between PRL and PBO Group LS Mean Change 24-hour SBP from Baseline at week 12 ([3]; PRL 40 mg): −4.29 mmHg | Within Group LS Mean Change from Baseline 24-hour MAP at Week 12 ([3]; PRL 40 mg): −3.23 mmHg | Within Group LS Mean Change from Baseline 24-hour SBP at Week 12 ([3]; PRL 40 mg): −4.41 mmHg | Between PRL and PBO Group LS Mean Change 24-hour MAP from Baseline at week 12 ([3]; PRL Combined): −3.77 mmHg | Between PRL and PBO Group LS Mean Change 24-hour SBP from Baseline at week 12 ([3]; PRL Combined): −4.17 mmHg | Within Group LS Mean Change from Baseline 24-hour MAP at Week 12 ([3]; PRL Combined): −3.43 mmHg | Within Group LS Mean Change from Baseline 24-hour SBP at Week 12 ([3]; PRL Combined): −4.30 mmHg | decrease in mean HbA1c levels compared to placebo ([4]; 12 weeks of treatment): ~0.3% | Hemoglobin A1c: Between PRL and PBO Group LS Mean Change from Baseline at week 12 ([4]; PRL 20 mg): −0.23% | Hemoglobin A1c: Within Group LS Mean Change from Baseline at Week 12 ([4]; PRL 20 mg): −0.26% | Hemoglobin A1c: Between PRL and PBO Group LS Mean Change from Baseline at week 12 ([4]; PRL 40 mg): −0.30% | Hemoglobin A1c: Within Group LS Mean Change from Baseline at Week 12 ([4]; PRL 40 mg): −0.38% | Hemoglobin A1c: Between PRL and PBO Group LS Mean Change from Baseline at week 12 ([4]; PRL Combined): −0.27% | Hemoglobin A1c: Within Group LS Mean Change from Baseline at Week 12 ([4]; PRL Combined): −0.34% | AUC with concomitant strong CYP3A inhibitor versus without [5]: doubled | T1/2 with concomitant strong CYP3A inhibitor versus without [5]: doubled
